Values of other authors, collected in US7189730B2, “A2A adenosine receptor antagonists” (CV Therapeutics, Inc., priority 2001, dated 2007).

Experiments:
[1] = tested on: experimentally induced cataleptic responses; details: in vivo
[2] = tested on: haloperidol-induced catalepsy; details: rat; Mandhane et al. 1997

Which “improvement of symptoms in Parkinson's patients” value (Parkinson's patients) does the source give for Cn1c(=O)c2[nH]cnc2n(C)c1=O [theophylline] here?
Its value is “significant improvement of symptoms”.

Which “effect on experimentally induced cataleptic responses” value [1] does the source give for CCCn1c(=O)c2c(nc(/C=C/c3ccc(OC)c(OC)c3)n2C)n(CCC)c1=O [KF 17837] here?
The value was “ameliorates”.

With N[C@@H](Cc1ccc(O)c(O)c1)C(=O)O [L-DOPA] as the molecule, how does the “effect on haloperidol-induced catalepsy” value [2] read?
The value was “block”.
